Assay results from ChEMBL document CHEMBL4311946, “Mechanistic Insight on the Mode of Action of Colletoic Acid” (J Med Chem, 2019).
Activity calls are given as the source filed them. No cut-off for these calls is given here.

How the values were obtained:
3T3-L1 [1] = assay: Effect on total GR expression in differentiated mouse 3T3L1 cells at 50 uM measured on day 3 and 7 by Western blot analysis; assay type: ADME, cell-based; conditions: 3t3-l1, 50 µM
3T3-L1 [2] = assay: Inhibition of cell differentiation in mouse 3T3L1 cells assessed as reduction in pre-adipocyte differentiation into matured adipocytes at 50 uM incubated for 48 hrs under induction medium containing dehydrocorticosterone/cortisone followed by shifting to differentiation medium and measured after 7 days by Oil red O staining-based microscopic analysis; assay type: functional
Homo sapiens [3] = organism: Homo sapiens; assay: (§1) Anti-adipogenic activity in human visceral preadipocytes assessed as reduction in pre-adipocyte differentiation into matured adipocytes at 50 uM incubated for 48 hrs under induction medium containing hydrocortisone hemi-succinate prior to compound washout followed by shifting to differentiation medium containing compound supplemented with fresh medium every 48 to 72 hrs for 9 to 14 days by oil red O staining-based microscopic analysis; assay type: functional, cell-based
3T3-L1 [4] = assay: Anti-adipogenic activity in mouse 3T3L1 preadipocytes assessed as reduction in S6K1 mRNA expression at 50 to 100 uM measured daily for 2 days under induction media containing dehydrocorticosterone/cortisone by SYBR green dye-based qRT-PCR analysis; assay type: functional, cell-based
3T3-L1 [5] = assay: (§2) Anti-adipogenic activity in mouse 3T3L1 preadipocytes assessed as decrease in lipid accumulation at 10 uM incubated for 48 hrs under induction medium containing dehydrocorticosterone/cortisone followed by shifting to differentiation medium and measured after 7 days by Oil red O staining-based microscopic analysis; assay type: functional, cell-based
3T3-L1 [6] = assay: as §2, with “restoration of cell morphology” for “decrease in lipid accumulation”, “50” for “10”, “mitotracker red/lipidtox green” for “Oil red O”, “staining-based confocal” for “staining-based”; assay type: functional
3T3-L1 [7] = assay: Anti-adipogenic activity in mouse 3T3L1 preadipocytes assessed as reduction in C/EBPdelta mRNA expression at 50 to 100 uM measured daily for 2 days under induction media containing dehydrocorticosterone/cortisone by SYBR green dye-based qRT-PCR analysis; assay type: functional, cell-based
3T3-L1 [8] = assay: Anti-adipogenic activity in differentiated mouse 3T3L1 cells assessed as reduction in ACACB mRNA expression at 50 to 100 uM measured after 2 to 7 days by SYBR green dye-based qRT-PCR analysis; assay type: functional, cell-based
[9] = molecular target: T1, Peroxisome proliferator-activated receptor gamma (Homo sapiens) (UniProt P37231); assay: Antagonist activity at human PPARgamma expressed in 293H cells assessed as reduction in rosiglitazone-induced transcriptional response at 0.002 to 4 uM preincubated for 30 mins followed by rosiglitazone addition and measured after 16 hrs by reporter gene-based FRET assay; assay type: cell-based
T1 sequence (whole entry): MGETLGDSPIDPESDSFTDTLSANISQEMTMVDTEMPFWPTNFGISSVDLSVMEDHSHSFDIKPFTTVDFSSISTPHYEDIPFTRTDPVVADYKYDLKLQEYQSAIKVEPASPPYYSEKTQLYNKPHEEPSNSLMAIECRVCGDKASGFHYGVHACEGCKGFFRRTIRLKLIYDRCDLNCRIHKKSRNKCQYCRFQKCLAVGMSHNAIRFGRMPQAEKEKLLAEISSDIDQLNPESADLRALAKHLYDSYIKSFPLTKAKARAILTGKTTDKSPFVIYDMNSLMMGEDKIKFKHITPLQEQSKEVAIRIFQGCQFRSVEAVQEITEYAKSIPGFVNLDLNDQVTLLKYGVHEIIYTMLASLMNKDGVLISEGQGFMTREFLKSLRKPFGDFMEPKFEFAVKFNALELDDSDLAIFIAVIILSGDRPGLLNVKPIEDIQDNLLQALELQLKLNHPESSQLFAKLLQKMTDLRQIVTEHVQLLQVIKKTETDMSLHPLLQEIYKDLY

Homo sapiens [10] = assay: as §1, with “subcutaneous” for “visceral”, “decrease” for “reduction”, “lipid accumulation” for “pre-adipocyte differentiation into matured adipocytes”; assay type: functional, cell-based
3T3-L1 [11] = assay: Cytotoxicity against mouse 3T3L1 cells measured after 72 hrs by celltiter-glo luminescent cell viability assay; assay type: ADME, cell-based; conditions: 3T3-L1, 72 h
3T3-L1 [12] = assay: Anti-adipogenic activity in differentiated mouse 3T3L1 cells assessed as reduction in PGC1alpha expression at 50 uM measured on day 3 by Western blot analysis; assay type: functional, cell-based
Fibroblast = assay: Effect on nascent protein synthesis in mouse fibroblasts assessed as reduction in O-Propargyl-puromycin incorporation at 50 uM by fluorescent azide/pico green dye-based confocal microscopic analysis; assay type: ADME, cell-based
3T3-L1 [13] = assay: Anti-adipogenic activity in differentiated mouse 3T3L1 cells assessed as reduction in Glut4 mRNA expression at 50 to 100 uM measured after 2 to 7 days by SYBR green dye-based qRT-PCR analysis; assay type: functional, cell-based
[14] = Half life in human liver microsomes; assay type: ADME, Microsome
3T3-L1 [15] = assay: Anti-adipogenic activity in differentiated mouse 3T3L1 cells assessed as reduction in 11beta-HSD1 mRNA expression at 50 to 100 uM measured after 2 to 7 days by SYBR green dye-based qRT-PCR analysis; assay type: functional, cell-based
3T3-L1 [16] = assay: as §2, with “50” for “10”; assay type: functional, cell-based
3T3-L1 [17] = assay: Anti-adipogenic activity in differentiated mouse 3T3L1 cells assessed as reduction in PGC1alpha expression at 50 uM measured on day 7 by Western blot analysis; assay type: functional, cell-based
3T3-L1 [18] = assay: Anti-adipogenic activity in mouse 3T3L1 preadipocytes assessed as decrease in lipid accumulation at 50 uM measured after 3 days under induction medium containing dehydrocorticosterone/cortisone by Oil red O staining-based microscopic analysis; assay type: functional, cell-based
3T3-L1 [19] = assay: Anti-adipogenic activity in differentiated mouse 3T3L1 cells assessed as reduction in 11beta-HSD1 expression at 50 uM measured on day 7 by Western blot analysis; assay type: functional, cell-based
3T3-L1 [20] = assay: Anti-adipogenic activity in mouse 3T3L1 preadipocytes assessed as reduction in C/EBPalpha mRNA expression at 50 to 100 uM measured daily for 2 days under induction media containing dehydrocorticosterone/cortisone by SYBR green dye-based qRT-PCR analysis; assay type: functional, cell-based
[21] = Volume of distribution at steady state in C57BL6 mouse at 5 to 30 mg/kg, iv by LC-MS analysis; assay type: ADME, organism-based; conditions: in vivo
3T3-L1 [22] = assay: Anti-adipogenic activity in mouse 3T3L1 preadipocytes assessed as reduction in C/EBPbeta mRNA expression at 50 to 100 uM measured daily for 2 days under induction media containing dehydrocorticosterone/cortisone by SYBR green dye-based qRT-PCR analysis; assay type: functional, cell-based
3T3-L1 [23] = assay: Anti-adipogenic activity in differentiated mouse 3T3L1 cells assessed as reduction in PPARgamma expression at 50 uM measured on day 3 by Western blot analysis; assay type: functional, cell-based
3T3-L1 [24] = assay: Cytotoxicity against mouse 3T3L1 cells up to 1 mM measured after 72 hrs under induction medium containing dehydrocorticosterone/cortisone by celltiter-glo luminescent cell viability assay; assay type: cell-based; conditions: 3t3-l1, 72 h
3T3-L1 [25] = assay: Anti-adipogenic activity in differentiated mouse 3T3L1 cells assessed as reduction in PPARgamma mRNA expression at 50 to 100 uM measured after 2 to 7 days by SYBR green dye-based qRT-PCR analysis; assay type: functional, cell-based
Homo sapiens [26] = organism: Homo sapiens; assay: Anti-adipogenic activity in human visceral preadipocytes assessed as decrease in lipid accumulation at 50 uM measured after 3 days under induction medium containing hydrocortisone hemi-succinate by oil red O staining-based microscopic analysis; assay type: functional, cell-based
3T3-L1 [27] = assay: Anti-adipogenic activity in differentiated mouse 3T3L1 cells assessed as reduction in PGC1alpha mRNA expression at 50 to 100 uM measured after 2 to 7 days by SYBR green dye-based qRT-PCR analysis relative to control; assay type: functional

For CC1=CC[C@@]2(C[C@@H]1O)[C@@H](C(=O)O)CC[C@H]2C(C)C, which Activity (3T3-L1 [1]) is on record?
Its Activity is “Non-Toxic”.

And the inhibition (3T3-L1 [2])?
Its inhibition is “Active”.

And the Activity (Homo sapiens [3])?
Its Activity is “Active”.

What about the Activity (3T3-L1 [4]) of the same compound?
The Activity was “Active”.

And the Activity (3T3-L1 [5])?
The Activity was “Active”.

And the Activity (3T3-L1 [6])?
Its Activity is “Active”.

What about the Activity (3T3-L1 [7]) of the same compound?
The Activity was “Active”.

And the Activity (3T3-L1 [8])?
The Activity was “Active”.

And the Activity [9]?
The Activity was “inactive”.

What about the Activity (Homo sapiens [10]) of the same compound?
Its Activity is “Active”.

What about the EC50 (3T3-L1 [11]) of the same compound?
Its EC50 is over 500 µM.

And the Activity (3T3-L1 [12])?
Its Activity is “inactive”.

And the Activity (Fibroblast)?
Its Activity is “Non-Toxic”.

What about the Activity (3T3-L1 [13]) of the same compound?
Its Activity is “Active”.

What about the t1/2 [14] of the same compound?
The t1/2 was 1.18 h.

And the Activity (3T3-L1 [15])?
Its Activity is “Active”.

And the Activity (3T3-L1 [16])?
The Activity was “Active”.

And the Activity (3T3-L1 [17])?
The Activity was “Active”.

And the Activity (3T3-L1 [18])?
Its Activity is “inactive”.

And the Activity (3T3-L1 [19])?
Its Activity is “Active”.

And the Activity (3T3-L1 [20])?
Its Activity is “Active”.

What about the Vdss [21] of the same compound?
Its Vdss is 0.247 L/kg.

And the Activity (3T3-L1 [22])?
The Activity was “Active”.

What about the Activity (3T3-L1 [23]) of the same compound?
Its Activity is “inactive”.

And the Activity (3T3-L1 [24])?
The Activity was “Non-Toxic”.

What about the Activity (3T3-L1 [25]) of the same compound?
Its Activity is “Active”.

What about the Activity (Homo sapiens [26]) of the same compound?
Its Activity is “inactive”.

And the “fold change (FC)” value (3T3-L1 [27])?
Its value is under 10.
